pEC50: −log10 of the molar value. Several values for one entry are separate records, joined by “and”; a condition that tells them apart may be missing. Equal values may be shown once. Read-outs that look alike come from different tables or passages of the source.
Legend:
[1] = test system: alkaline phosphatase (APb); experiment: alkaline phosphatase (APb) induction in LE II cells; format: cell-based, mouse; settings: for Emax: Mus musculus, Table 1, about 65 hours, relative to dexamethasone = 1, read-out: Efficacy (DEX = 1) Alk P
Protocol: This is another standard test for glucocorticoid activity.
LE II cells were grown in DMEM plus 10% FCS, at 37° C., in a 10% carbon dioxide atmosphere. Confluent monolayers of cells were trypsinized and seeded at a 1:15 dilution into 6-well Costar cluster dishes. […] In all experiments, DEX, at concentrations of 10^-9 to 10^-6 M, was added to some of the wells as a positive control.
Cell monolayers were washed with PBS and harvested by scraping with a rubber policeman into 400 μl of a buffer of 20 mM Tris-HCl at pH 7.4; 2 mM MgCl2; and 150 mM NaCl together with 1% Triton X-100. Samples were transferred into 1.5 ml Eppendorf centrifuge tubes and placed on ice. The tubes were first vortexed and then centrifuged in the Eppendorf minicentrifuge for 2 minutes. Duplicate 100 μl aliquots of supernatant were placed into 12×75 mm glass test tubes for determination of APb activity, while the rest was saved for protein determination. […] The tubes were incubated in a 37° C. water bath for between 20 to 50 minutes, depending on the activity of the samples. The APb reaction was terminated by the addition of 0.5 ml of […]. The tubes were mixed and 200 μl portions from each tube were transferred in triplicate to a 96 well microtiter plate. The OD410 nm of each well was then determined using a Dynatech plate reader.
[…] of the cell supernatant were transferred to 96 well microtiter plates for protein determination by a modification of the Lowry method. […] The plates were shaken for 1 hour and then the OD630 was determined using a Dynatech plate reader. The protein content for each sample was calculated by comparing the average OD630 reading with those obtained for a bovine serum albumin standard curve.
The alkaline phosphatase activity of in each sample was expressed as μmoles product formed per minute per mg protein in the Alk P column of Tables 1 and 2. Results are expressed as the induction ability of a compound as compared to dexamethasone.

[2] = test system: tyrosine aminotransferase (TAT); experiment: tyrosine aminotransferase (TAT) induction in HTC cells; format: cell-based, rat; settings: for Emax: from 10^-6 M down, relative to dexamethasone = 1, read-out: Efficacy (DEX = 1) TAT
Protocol: In this example, tyrosine aminotransferase (TAT) activity was determined by a spectrophotometric assay. This enzyme catalyzes the conversion of tyrosine to p-hydroxyphenylpyruvate. This example is a standard in vitro test for glucocorticoid activity.
Addition of base caused the conversion of p-hydroxyphenylpyruvate to p-hydroxybenzaldehyde, which was quantitatively measured by absorbance at 331 nm. HTC cells, the target cells for the compound tested were grown in DMEM+10% FCS. Subconfluent cell cultures were incubated with test compounds in 6 well Costar dishes for 24 or 48 hours. The cells were incubated in either serum-free DMEM or DMEM containing 10% FCS previously filtered over activated charcoal. The cells were harvested in PBS using a rubber policeman, then washed once in PBS by centrifugation and resuspended in a 0.3 ml lysis buffer of 10 mM Tris, 10 mM EDTA and 0.25M sucrose at pH 7.4. The cells were then lysed by three cycles of freeze-thawing using dry ice and a 37° C. waterbath and the cells debris was pelleted by centrifugation for 2 min at 12,000 9 in an Eppendorf centrifuge.
The supernatant was used for a protein determination using either E+K stain or BioRad protein assay kit and TAT activity. 0.1 ml TAT buffer having 50 mM KH2 PO4, 1 mM EDTA, 0.1 mM Dithiothereitol (DTT), and 5 mg/ml BSA at pH 7.6 and 0.1 ml cell extract were mixed in glass tubes. A prewarmed mixture of 200 parts of a 2.3 mg/ml tyrosine solution in 0.05M phosphate buffer, 100 parts 0.125M KH2 PO4, 10 parts of a 0.92 mg/ml and ketoglutarate solution and 1 part of a 0.04 mg/ml pyridoxalphosphate solution had been previously made up. […] of the prewarmed mixture was added to each tube and allowed to react at 37° C. for 15 min. The addition of 0.1 ml 7N […] stopped the reaction. The mixture was then immediately vortexed.
Aldehyde formation was allowed to proceed at 37° C. for 30 min. The amound of aldehyde formed was determined by UV spectroscopic means. Absorbance was read at 331 nm using a solution composed of 0.1 ml TAT buffer, 0.1 ml lysis buffer, 0.7 ml reaction mixture and 0.1 ml 7N KOH as a blank. Optical Density values are linearily corrected for protein content.
As the absolute amount of enzyme induction varies between experiments, results are expressed as percent of the maximal induction obtained with dexamethasone, which was run as a standard in each assay.
In this series, compounds were assayed from 10^-6 M down. Results are expressed in the TAT column of tables 1, and 2 as the induction ability of a compound as compared to dexamethasone; a compound may either be a partial inducer or a superinducer.

[3] = test system: Hamster Melanoma RPM1 1846 tumor cells; experiment: hamster cheek pouch (HCP) angiogenesis inhibition, 1846 tumor cell stimulus; format: in vivo, Male Syrian Golden hamsters; settings: 3×10^5 tumor cells; for % Inhibition HCP Stimulus 1846: Table 1, between 0.5 and 4 mg/kg s.c. daily, each number independent result, average of six animals; for HCP % Inhibition Stimulus 1846: Table 2, compounds given daily at 0.4 mg/kg
Protocol: (§1) Each compound of the series was also tested for anti-angiogenic activity by an in vivo test that measured vascularization in a hamster's cheek pouch in response to either an angiogenic polypeptide growth factor, epidermal growth factor (EGF) or an induced […].
(§2) In this example, the in vivo angiogenesis inhibition activity of etianic acid esters was tested. Male Syrian Golden hamsters, weighing between 120 g and 150 g were anaesthetized by intraperitoneal (I.P.) injection of a rodent anaesthetic mixture consisting of 50 mg/kg ketamine hydrochloride, 5 mg/kg xylazine and 1 mg/kg acepromazine. The left cheek pouch of each animal was everted with a pincet and pinned down to a plexiglass-rubber stage and observed through a Zeiss stereomicroscope. 10 μg of EGF or 3×10^5 Hamster Melanoma RPM1 1846 tumor cells in 10 μl Cibachrome Blue agarose (Amicon) were injected subcutaneously in the left lower quadrant of the pouch with a Hamilton syringe.
(§3) The pouch was then reinserted and animals were kept under observation until recovered from anaesthesia.
(§4) The animals were dosed daily with one test compound, starting one day before stimulus injection and continuing until observation. The test compounds were dissolved in a minimum volume of ethanol and diluted in sterile phosphate buffer solution. […]
(§5) Either five days or twelve days after the EGF or tumor cell injection, animals were anaesthetized by I.P. injection of the rodent anaesthetic mixture. The pouch was everted on the stage and examined under the stereomicroscope. Pictures were taken with a 35 mm using Kodak Tungsten 50 professional films.
(§6) The following subjective scoring was used for evaluating the photographs:
(§7) 1: minimal branching of vessels in the vicinity of injection site.
(§8) 2: new vessels reach injection site, area involved is minimal (<50% of area surrounding injection site).
(§9) 3: many vessels reach and cross injection site, new vessels are tortuous, (>50% of area surrounding injection site).
(§10) 4: "full blown", many tortuous vessels, leakages, hemorrhages, 100% of area around injection site, invasion of new vessels into non-injected areas.
(§11) In the case of the tumor, tumor size was also determined. (See Table 4)
(§12) Results are expressed as the mean of the score. The results are shown in Tables 1 and 2 are percent inhibition of HCP Stimulus.

[4] = test system: Hamster Melanoma RPM1 1846 tumor cells; experiment: Inhibition of tumor growth (2 week assay); format: in vivo, Male Syrian Golden hamsters; settings: Table 3, dose 0.8 mg/kg; for Angiogenesis score: mean of score 0 (no new vessels) to 4 (full blown), untreated 3.1 [A], 2.9 [B]; for Tumor area Mn (mm^2): untreated 40.7 ± 16.2 [A], 27.5 ± 15.3 [B]
Protocol: as §2, §3
The animals were dosed daily with one test compound, starting one day before stimulus injection and continuing until observation. The test compounds were dissolved in a minimum volume of ethanol and diluted in sterile phosphate buffer solution. Then between 0.5 and 4 mg/kg of the test compound was injected subcutaneously.
as §5, §6, §7, §8, §9, §10, §11, §12

[5] = test system: Epidermal Growth Factor; experiment: hamster cheek pouch (HCP) angiogenesis inhibition, EGF stimulus; format: in vivo, Male Syrian Golden hamsters; settings: 10 μg EGF; for % Inhibition HCP Stimulus Epidermal Growth Factor: Table 1, between 0.5 and 4 mg/kg s.c. daily, each number independent result, average of six animals; for HCP % Inhibition Stimulus EGF: Table 2, compounds given daily at 0.4 mg/kg
Protocol: as §1, §2, §3, §4, §5, §6, §7, §8, §9, §10, §12

[6] = Rattus norvegicus, Table 1, 24 or 48 hours
[7] = Rattus norvegicus, Table 2, 24 or 48 hours

`C[C@@H]1C[C@H]2[C@@H]3CCC4=CC(=O)C=C[C@]4(C)[C@@]3(F)[C@@H](O)C[C@]2(C)[C@@]1(O)C(=O)CO` [Dexamethasone, dexamethasone, reference compound] was tested, and the “incubation time to maximum induction of alkaline phosphatase activity” value ([1]; preliminary experiments) was 48 to 72 h, the “concentration inducing maximal TAT activity” value [2] was 10^-7 M and the pEC50 ([2]; Rattus norvegicus) was ~7.70.
`CCC(=O)O[C@]1(C(=O)OC)[C@@H](C)C[C@H]2[C@@H]3CC(F)C4=CC(=O)C=C[C@]4(C)[C@@]3(F)[C@@H](O)C[C@@]21C` (stereo partly shown) [compound 2] was tested, and the “% Inhibition HCP Stimulus 1846” value [3] was 33% and 35%, the “Angiogenesis % Inh.” value [4] was 35% and the “Tumor area % (inhibition of tumor growth)” value [4] was 58%. The Angiogenesis score [4] was 1.9, the “Tumor area Mn (mm^2)” value [4] was 11.6 ± 10.3 mm^2 and the Emax [1] was 90%. The “% Inhibition HCP Stimulus Epidermal Growth Factor” value [5] was 100% and the Emax [2, 6] was 80%.
In the case of `COC(=O)[C@@]1(OC=O)[C@H](C)C[C@H]2[C@@H]3CC(F)C4=CC(=O)C=C[C@]4(C)[C@@]3(F)[C@@H](O)C[C@@]21C` (stereo partly shown) [compound 5], the “% Inhibition HCP Stimulus Epidermal Growth Factor” value [5] was -25%.
`COC(=O)[C@@]1(OC(C)=O)[C@H](C)C[C@H]2[C@@H]3CC(F)C4=CC(=O)C=C[C@]4(C)[C@@]3(F)[C@@H](O)C[C@@]21C` (stereo partly shown) [compound 6] was tested, and the “% Inhibition HCP Stimulus Epidermal Growth Factor” value [5] was 23% and the Emax [2, 6] was 70%.
In the case of `CCCCC(=O)O[C@]1(C(=O)OC)[C@H](C)C[C@H]2[C@@H]3CC(F)C4=CC(=O)C=C[C@]4(C)[C@@]3(F)[C@@H](O)C[C@@]21C` (stereo partly shown) [compound 10], the “% Inhibition HCP Stimulus 1846” value [3] was 24%, the “Angiogenesis % Inh.” value [4] was 23% and the “Tumor area % (inhibition of tumor growth)” value [4] was 45%. For the same compound, the Angiogenesis score [4] was 2.4, the “Tumor area Mn (mm^2)” value [4] was 22.5 ± 13.7 mm^2 and the Emax [1] was 70%. The “% Inhibition HCP Stimulus Epidermal Growth Factor” value [5] was 100% and the Emax [2, 6] was 90%.
`CCC(=O)O[C@]1(C(=O)SC)[C@@H](C)C[C@H]2[C@@H]3CC(F)C4=CC(=O)C=C[C@]4(C)[C@@]3(F)C(O)C[C@@]21C` (stereo partly shown) [compound 11] was tested, and the “HCP % Inhibition Stimulus 1846” value [3] was 28%, the “HCP % Inhibition Stimulus EGF” value [5] was 100% and the Emax [2, 7] was 140%.
With `CCCC(=O)O[C@]1(C(=O)SC)[C@@H](C)C[C@H]2[C@@H]3CCC4=CC(=O)C=C[C@]4(C)[C@@]3(F)C(O)C[C@@]21C` (stereo partly shown) [compound 12] the “HCP % Inhibition Stimulus EGF” value [5] was 37% and the Emax [2, 7] was 130%.
`CCCC(=O)O[C@]1(C(=O)SC)[C@@H](C)C[C@H]2[C@@H]3CC(F)C4=CC(=O)C=C[C@]4(C)[C@@]3(F)[C@@H](O)C[C@@]21C` (stereo partly shown) [compound 13] was tested, and the “HCP % Inhibition Stimulus 1846” value ([3]; 0.4 mg/kg) was 40% and 53% and 45%, the “Angiogenesis % Inh.” value [4] was 42% and the “Tumor area % (inhibition of tumor growth)” value [4] was 78%. The Angiogenesis score [4] was 1.8, the “Tumor area Mn (mm^2)” value [4] was 9.1 ± 3 mm^2 and the “HCP % Inhibition Stimulus EGF” value ([5]; 0.4 mg/kg) was 94% and 84%. The Emax [2, 7] was 90%.
In the case of `CCCCC(=O)O[C@]1(C(=O)SC)[C@@H](C)C[C@H]2[C@@H]3CC(F)C4=CC(=O)C=C[C@]4(C)[C@@]3(F)C(O)C[C@@]21C` (stereo partly shown) [compound 14], the “HCP % Inhibition Stimulus 1846” value [3] was 16%, the “HCP % Inhibition Stimulus EGF” value ([5]; 0.4 mg/kg) was 22% and 42% and the Emax [2, 7] was 60%.
In the case of `CCC(=O)O[C@]1(C(=O)SC)[C@H](C)C[C@H]2[C@@H]3CCC4=CC(=O)C=C[C@]4(C)[C@@]3(F)C(O)C[C@@]21C` (stereo partly shown) [compound 15], the “HCP % Inhibition Stimulus EGF” value [5] was 30%.
`CCC(=O)O[C@]1(C(=O)SC)[C@H](C)C[C@H]2[C@@H]3CC(F)C4=CC(=O)C=C[C@]4(C)[C@@]3(F)C(O)C[C@@]21C` (stereo partly shown) [compound 16] was tested, and the “HCP % Inhibition Stimulus 1846” value ([3]; 0.4 mg/kg) was 25% and 35%, the “HCP % Inhibition Stimulus EGF” value [5] was 46% and the Emax [2, 7] was 120%.
For `CCCC(=O)O[C@]1(C(=O)SC)[C@H](C)C[C@H]2[C@@H]3CC(F)C4=CC(=O)C=C[C@]4(C)[C@@]3(F)C(O)C[C@@]21C` (stereo partly shown) [compound 18], the “HCP % Inhibition Stimulus 1846” value [3] was 16% and the Emax [2, 7] was 130%.

— patent US4599331A, “Etianic acids as antiangiogenics” (Syntex (U.S.A.) Inc., priority 1984, dated 1986)
